Here are results for one compound from US20080003627A1, “SYSTEM FOR BIOSYNTHESIS OF FIREFLY LU[…] WITH NATURAL L-CYSTEINE OR DERIVATIVES THEREOF AND LU[…] SOLUTIONS CONTAINING THE SYSTEM” (NATIONAL INSTITUTE OF ADVANCED INDUSTRIAL SCIENCE AND …, priority 2004, published 2008).

This assay addresses firefly luciferase (Photinus pyralis, UniProt P08659). Briefly: firefly luminescence reaction (luminescence activity as substrate). Format: biochemical. To be noted: ATP, Mg ion, luminometer.

The structures appear in SMILES notation.

Sequence of firefly luciferase (P08659 whole entry): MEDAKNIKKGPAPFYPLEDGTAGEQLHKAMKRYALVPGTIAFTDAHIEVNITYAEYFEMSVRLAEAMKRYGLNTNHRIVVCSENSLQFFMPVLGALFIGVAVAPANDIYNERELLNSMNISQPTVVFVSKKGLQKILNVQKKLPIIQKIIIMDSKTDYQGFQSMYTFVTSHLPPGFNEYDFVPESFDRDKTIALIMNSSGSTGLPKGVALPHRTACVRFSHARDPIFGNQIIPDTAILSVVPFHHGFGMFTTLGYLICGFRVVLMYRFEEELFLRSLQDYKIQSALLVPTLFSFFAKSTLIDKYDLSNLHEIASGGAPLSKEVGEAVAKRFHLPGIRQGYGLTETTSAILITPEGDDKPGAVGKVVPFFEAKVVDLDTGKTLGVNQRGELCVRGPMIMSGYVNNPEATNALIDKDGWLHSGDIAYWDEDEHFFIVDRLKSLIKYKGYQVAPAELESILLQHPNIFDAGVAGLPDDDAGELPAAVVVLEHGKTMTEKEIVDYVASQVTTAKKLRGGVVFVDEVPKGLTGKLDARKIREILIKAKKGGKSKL
Method: In a buffer solution (0.1 M Tris-HCl, pH 8), 10 mM 2-cyano-6-hydroxybenzothiazole, 1 mM L-cysteine, 10 mM COA-SH, 0.1 mg/mL of firefly luciferase and 100 units/mL of swine liver esterase were dissolved, 10 μL of the mixture was dispensed in a tube for measuring the luminescence, and a total volume was made 100 μL by adding the same buffer. An ATP—Mg solution (100 μL, 6 mM ATP—Na, 16 mM MgSO4) was injected thereto to initiate a luminescence reaction, and a luminescence amount was measured using a luminometer AB2200 supplied from ATTO Corporation.

For `CC(C)(COP(=O)(O)OP(=O)(O)OCC1OC(n2cnc3c(N)ncnc32)C(O)C1OP(=O)(O)O)C(O)C(=O)NCCC(=O)NCCSC(=O)C1CSC(c2nc3ccc(O)cc3s2)=N1` (stereo not shown) [luciferyl-CoA], the “luminescence activity (produces luminescence with luciferase)” value was “does not produce the luminescence”.
